According to patent publication US20230146939A1, “TREATMENT FOR HUMAN CORONAVIRUS INFECTION” (THE ADMINISTRATORS OF THE TULANE EDUCATIONAL FUND, priority 2020, published 2023):

How the values were obtained:
lung tissue = conditions: saline/ATN-161, no SARS-CoV-2
[1] = in vivo; cited from earlier work
[2] = cancer patients; cited from earlier work
SARS-CoV-2 = conditions: 1 h

Substance: Ac-PHSCN-NH2 [ATN-161, Ac-PHSCN-NH2] [listing 1 of 2 here]
- H&E histopathological changes in uninfected mice (lung tissue): no histopathological changes in any of the mice
- Masson's trichrome histopathological changes in uninfected mice (lung tissue): no histopathological changes in any of the mice
- tissue distribution [1]: high tissue distribution
- safety in human clinical trials [2]: no dose limiting toxicity

Substance: Ac-PHSCN-NH2 [ATN-161, Ac-PHSCN-NH2] [listing 2 of 2 here]
- IC50 (SARS-CoV-2): 3.16 µM
